Test results as given in publication PMC11058275, “Targeted potent antimicrobial and antitumor oxygen-heterocyclic-based pyran analogues: synthesis and computational studies” (Scientific Reports, 2024).
Converted amounts (≈) assume the structure as drawn. Read-outs that look alike come from different tables or passages of the source.

How the values were obtained:
[1] = tested on: Bacillus cereus (ATCC 10987); assay: Agar diffusion antibacterial screening (inhibition zone); format: cell-based; conditions: ATCC10987, B. cereus, 1 mg/mL, Mueller–Hinton agar, read-out: Diameter of inhibition zone
Method: (§1) The antibacterial activity of β-enamionitriles (4a-q) was screened using Mueller–Hinton agar medium for bacteria in an agar diffusion methodology. Ciprofloxacin (1 mg/mL) was the reference antibiotic drug used in the analysis of collections that included four gram-positive species of multi drug resistant pathogenic bacteria: Staphylococcus aureus (MRSA) (ATCC 6539), Staphylococcus aureus (ATCC 6538), Bacillus cereus (ATCC 10987), Bacillus subtilis (ATCC 6633), and two gram-negative species of multi drug resistant pathogenic bacteria Klebsiella pneumonia (ATCC 13883) and Escherichia coli (ATCC 8739). […] Using a 1 mg/mL concentration of compounds (4a-q), the minimum zone of inhibition (IZ, the area around the antimicrobial agent where bacterial growth is prevented) was established in mm ± standard deviation beyond the well diameter (6 mm). […] The synthetic compound's inhibitory effects on evaluation against these organisms are depicted in Fig. 9 and Table 1.
(§2) Compound 4a-q was screened for its in vitro antimicrobial activities against pathogenic bacteria species using the standard antibiotics Ampicillin, Gentamycin and Ketoconazole as reference drugs as reported previously. The minimum inhibitory concentration (MIC) was determined as previously reported. The antimicrobial activities were performed at the Regional Centre for Mycology & Biotechnology (RCMP), Al-Azhar University.

[2] = tested on: Bacillus subtilis (ATCC 6633); assay: as above; format: cell-based; conditions: ATCC6633, B. subtilis, 1 mg/mL, Mueller–Hinton agar, read-out: Diameter of inhibition zone
Method: as §1, §2

[3] = tested on: Escherichia coli (ATCC 8739); assay: as above; format: cell-based; conditions: ATCC8739, E. coli, 1 mg/mL, Mueller–Hinton agar, read-out: Diameter of inhibition zone
Method: as §1, §2

[4] = tested on: Klebsiella pneumonia (ATCC 13883); assay: as above; format: cell-based; conditions: Klebsiella pneumoniae, ATCC13883, K. pneumonia, 1 mg/mL, Mueller–Hinton agar, read-out: Diameter of inhibition zone
Method: as §1, §2

[5] = tested on: Staphylococcus aureus (ATCC 6538); assay: as above; format: cell-based; conditions: ATCC6538, S. aureus, 1 mg/mL, Mueller–Hinton agar, read-out: Diameter of inhibition zone
Method: as §1, §2

[6] = tested on: Staphylococcus aureus (MRSA) (ATCC 6539); assay: as above; format: cell-based; conditions: read-out: Diameter of inhibition zone
Method: as §1, §2

MCF-7 (breast cancer) [7] = conditions: values marked b, read-out: IC50 Cancerotoxicity MCF-7; cited from earlier work
[8] = tested on: HCT-116 (human colon cancer); conditions: values marked b, read-out: IC50 Cancerotoxicity HCT-116; cited from earlier work
[9] = tested on: HepG-2 (hepatocellular carcinoma); conditions: values marked b, read-out: IC50 Cancerotoxicity HepG-2; cited from earlier work
[10] = tested on: HFL-1 (human foetal lung); assay: MTT cytotoxicity assay, normal cells; format: cell-based; conditions: HFL1, HFL-1 normal cells, MTT, 24-h incubation, mean ± standard error, read-out: IC50 Normotoxicity HFL-1
From the text: (§4) The antiproliferative activity of the newly synthesized 1H-benzo[f]chromenes derivatives (4a-q) was examined in three human cancer cell lines: MCF-7 (breast cancer), HCT-116 (human colon cancer), and HepG-2 (hepatocellular carcinoma), as well as the two normal cell lines, HFL-1 (human foetal lung) and WI-38 (human diploid fibroblasts), using the 3-(4,5-dimethylthiazol-2-yl)-2,5-diphenyl tetrazolium bromide (MTT) colorimetric assay[56].
(§5) Compounds 4a-q was initially evaluated for in vitro antitumor activity against three different human cell lines: MCF-7, HCT-116 and HepG-2. In-vitro cytotoxicity evaluation was performed at the Regional Center for Mycology & Biotechnology (RCMP), Al-Azhar University under different concentrations (50, 25, 12.5, 6.25, 3.125, 1.56 and 0 µg/mL); vinblastine and doxorubicin are used as reference cytotoxic compounds.

[11] = tested on: WI-38 (human diploid fibroblasts); assay: MTT cytotoxicity assay, normal cells; format: cell-based; conditions: WI-38 normal cells, MTT, 24-h incubation, mean ± standard error, read-out: IC50 Normotoxicity WI-38
From the text: as §4, §5

Bacillus cereus = assay: MIC, Mueller Hinton broth resazurin assay; format: cell-based; conditions: 24 h, MH broth resazurin
From the text: (§3) The minimum inhibitory concentration, or MIC, is the lowest concentration needed to stop bacterial growth. When evaluating how well antimicrobial agents work against various bacterial strains, MIC values are crucial. […] The right dosage of the antimicrobial agent to be used in the treatment of bacterial infections can also be determined with the aid of the MIC value. Table 2 and Fig. 10 show the minimum inhibitory concentration (MIC) of the active compound 4 g against various bacterial strains.
as §2

Bacillus subtilis = assay: MIC, Mueller Hinton broth resazurin assay; format: cell-based; conditions: 24 h, MH broth resazurin
From the text: as §3, §2

Escherichia coli = assay: MIC, Mueller Hinton broth resazurin assay; format: cell-based; conditions: 24 h, MH broth resazurin
From the text: as §3, §2

Klebsiella pneumonia = assay: MIC, Mueller Hinton broth resazurin assay; format: cell-based; conditions: Klebsiella pneumoniae, 24 h, MH broth resazurin
From the text: as §3, §2

[12] = tested on: Staphylococcus aureus (MRSA); assay: MIC, Mueller Hinton broth resazurin assay; format: cell-based; conditions: 24 h, MH broth resazurin
From the text: as §3, §2

Staphylococcus aureus = assay: MIC, Mueller Hinton broth resazurin assay; format: cell-based; conditions: 24 h, MH broth resazurin
From the text: as §3, §2

[13] = tested on: HCT-116 (human colon cancer); assay: MTT cytotoxicity assay; format: cell-based
From the text: as §4, §5

[14] = tested on: HepG-2 (hepatocellular carcinoma); assay: MTT cytotoxicity assay; format: cell-based; conditions: Homo sapiens
From the text: as §4, §5

MCF-7 (breast cancer) [15] = assay: MTT cytotoxicity assay; conditions: Homo sapiens
From the text: as §4, §5

[16] = MTT, 24-h incubation, mean ± standard error, read-out: IC50 Cancerotoxicity HCT-116
[17] = HepG2, MTT, 24-h incubation, mean ± standard error, read-out: IC50 Cancerotoxicity HepG-2
[18] = MCF7, 24 h, read-out: IC50 Cancerotoxicity MCF-7

| SMILES | zone of inhibition at 1000 µg/mL [1] [mm] | zone of inhibition at 1000 µg/mL [2] [mm] | zone of inhibition at 1000 µg/mL [3] [mm] | zone of inhibition at 1000 µg/mL [4] [mm] | zone of inhibition at 1000 µg/mL [5] [mm] | zone of inhibition at 1000 µg/mL [6] [mm] | melting point [°C] | IC50 (MCF-7 (breast cancer) [7]) [µM] | IC50 [8] [µM] | IC50 [9] [µM] | IC50 [10] [µM] | IC50 [11] [µM] | IC50 [13, 16] [µM] | IC50 [14, 17] [µM] | IC50 (MCF-7 (breast cancer) [15]; [18]) [µM] | other results |
| --- | --- | --- | --- | --- | --- | --- | --- | --- | --- | --- | --- | --- | --- | --- | --- | --- |
| COc1ccc2c3c(ccc2c1)OC(N)=C(C#N)C3c1ccc(F)cc1 (stereo not shown) [Compound 4a, 3-Amino-1-(4-fluorophenyl)-8-methoxy-1H-benzo[f]chromene-2-carbonitrile] | 13 | 0 | 11 | 14 | 0 | 14 | 255 to 256 | 12.7 ± 0.05 | 14.2 ± 0.01 | 1.5 ± 0.01 | – | – | – | – | – | – |
| COc1ccc2c3c(ccc2c1)OC(N)=C(C#N)C3c1ccc(Cl)cc1 (stereo not shown) [Compound 4d, 3-Amino-1-(4-chlorophenyl)-8-methoxy-1H-benzo[f]chromene-2-carbonitrile] | 15 | 0 | 0 | 12 | 0 | 12 | 246 to 247 | 8.6 ± 0.29 | 6.9 ± 0.97 | 0.8 ± 0.08 | 164.4 ± 1.1 | 165.5 ± 1.3 | – | – | – | – |
| COc1ccc2c3c(ccc2c1)OC(N)=C(C#N)C3c1ccc(Br)cc1 (stereo not shown) [Compound 4e, 3-Amino-1-(4-bromophenyl)-8-methoxy-1H-benzo[f]chromene-2-carbonitrile] | 14 | 0 | 0 | 10 | 0 | 12 | 261 to 262 | 4.9 ± 0.25 | 2.2 ± 0.58 | 1.7 ± 0.13 | 189.9 ± 1.1 | 165.3 ± 1.2 | – | – | – | – |
| COc1ccc2c3c(ccc2c1)OC(N)=C(C#N)C3c1ccc(F)cc1F (stereo not shown) [Compound 4g, 3-Amino-1-(2,4-difluorophenyl)-8-methoxy-1H-benzo[f]chromene-2-carbonitrile] | 20 | 21 | 14 | 16 | 23 | 17 | 300 to 301 | – | – | – | 179.4 ± 0.1 | 190.1 ± 0.3 | 6 ± 0.11 | 1.9 ± 0.5 | 2.7 ± 0.23 | MIC (Bacillus cereus): 1000 µg/mL (≈ 2740 µM); MIC (Bacillus subtilis): 1000 µg/mL (≈ 2740 µM); MIC (Escherichia coli): 250 µg/mL (≈ 686 µM); MIC (Klebsiella pneumonia): 500 µg/mL (≈ 1370 µM); MIC [12]: 500 µg/mL (≈ 1370 µM); MIC (Staphylococcus aureus): 1000 µg/mL (≈ 2740 µM) |
| COc1ccc2c3c(ccc2c1)OC(N)=C(C#N)C3c1cc(Br)cc(Br)c1OC (stereo not shown) [Compound 4n, 3-amino-1-(3,5-dibromo-2-methoxyphenyl)-8-methoxy-1H-benzo[f]chromene-2-carbonitrile] | 13 | 0 | 0 | 11 | 0 | 14 | 241 to 242 | – | – | – | 139.5 ± 0.1 | 135.4 ± 0.3 | 1.2 ± 0.06 | 5.6 ± 0.21 | 1.4 ± 0.05 | IC50 ([13]; given in µg/mL, read-out: IC50 HCT-116): 0.6 ± 0.06 µg/mL; IC50 ([14]; HepG2, given in µg/mL, read-out: IC50 HepG-2): 2.9 ± 0.21 µg/mL; IC50 (MCF-7 (breast cancer) [15]; MCF7, read-out: IC50 MCF-7): 0.7 ± 0.05 µg/mL |
